From patent US11401516B2, “Channel modulators” (AUCKLAND UNISERVICES LIMITED, priority 2014, dated 2022) come the findings set out here.

Molecules are shown by their SMILES.

For one experiment, the system named is hCMVEC cells. Description: Scrape load assay (Lucifer yellow dye transfer). It is filed as cell-based, human. On the procedure: In the below Examples 2, 4, 5, 8 and 10 using human cerebral microvascular endothelial cells (hCMVEC), cells were prepared by growing them in collagen coated (30 μg/mL) T25 or T75 flasks maintained in Medium M199 supplemented with 10% FCS, 1 μg/mL hydrocortisone, 3 ng/mL hFGF, 1 ng/mL hEGF, 10 μg/mL heparin, 1× penicillin streptomycin neomycin (Life Technologies), and cAMP (100 μL 100% cAMP to 100 mL media). Cells were maintained at 37° C. with 95% O2 and 5% CO2.
In this Example, human cerebral microvascular endothelial cells (hCMVEC) were grown in collagen coated (1 μg/mL) T25 flasks maintained in Medium M199 supplemented with 10% FBS, 1 μg/mL hydrocortisone, 3 ng/mL hFGF, 1 ng/mL hEGF, 10 μg/mL heparin and cAMP (100 μL 100% cAMP to 100 mL media) in a humidified atmosphere at 37° C. with 5% CO2. One day prior to experimentation, these cells were trypsinized and plated at a density of 4×10^5 cells/well in a collagen-coated 12 well-plate in the same medium. For treatments, cells were cultured in the presence of peptide5, a control gap junction channel blocker (carbenoxolone), or tonabersat for the respective time intervals prior to scrape dye loading. The blockers were also present in the respective scrape loading solutions.
For scrape loading the hCMVEC cells were washed three times with phosphate buffered saline (PBS) (without divalent cations). A solution of PBS+0.05% lucifer yellow was added to cells. The cells then received a scrape to the monolayer using a size 10 carbon steel surgical blade and incubated in the dark at 37° C. with 5% CO2 for 5 minutes. The cells were washed with PBS four times and then 1 mL of PBS added for fluorescent microscopy.
The live cells were then imaged on a Nikon TE2000E fluorescent microscope whilst maintained in a chamber heated to 37° C. with 5% CO2. Three images pairs were obtained at 10× magnification for each of a phase contrast image to view total cells and a fluorescent image to visualize Lucifer yellow using 488 nm excitation and a GFP filter block. Gap junctional communication was determined by counting the number of Lucifer yellow positive cells and presented as a percentage to the positive cells of the control group. Data was graphed as mean+standard error of the mean using Prism v5.02 software. Significance was determined through students two-tailed, unpaired, T Tests. *=p<0.05, **=[…], ***=p<0.001.
An in vitro scrape-loading assay with extracellular Lucifer Yellow (LY), a fluorescent dye that is transferred only through coupled GJs was performed to test whether Tonabersat inhibits GJ communication (M. H. el-Fouly, et al., Experimental cell research 168, 422 (February, 1987)). A single scrape wound was made to a confluent monolayer of hCMVEC cells to enable LY dye to gain access to the cytoplasm of cells at the edge of the wounded region and allow the dye to transfer to adjacent cells through GJs.

Experiment [1] has as its system Cx43 mRNA in ARPE-19 cells. Description: Real-time reverse transcription PCR of Cx43 mRNA. The settings on record: 50 μM, 1 h, versus untreated and vehicle controls. It is filed as cell-based, human. As to the method:
In the below Examples 3, 6 and 7 using human retinal epithelial (ARPE-19) cells, the cells were grown in DMEM/F: 12 (Invitrogen), supplemented with 10% fetal calf serum (FCS), 100 units/mL of penicillin, 100 μg/mL of streptomycin, and 0.25 μg/mL of Fungizone® Antimycotic (Invitrogen).
Real time reverse transcription PCR was used to determine the relative level of Cx43 mRNA. A confluent monolayer of ARPE-19 cells was treated with Tonabersat for 1 hour. Cells were harvested with TRIzol® (Life Technologies), and total RNA was isolated using […] according to manufacturer's instructions. All RNA samples were quantified using a nanodrop 1000 micro volume spectrophotometer (Thermo Scientific). cDNA from samples were synthesised using SuperScript® III First-Strand Synthesis SuperMix (Invitrogen) according to manufacturer's instructions. Primer sequences for hCx43, GenBank Accession No. M65188.1, were obtained from the Harvard Primer bank. […] The appropriate reference gene to be used for relative fold-difference in Cx43 mRNA was determined by screening commonly used house-keeping genes, ß-actin [ACTB], Hypoxanthine phosphoribosyltransferase 1 [HPRT1], peptidylprolyl isomerase A [PPIA], and glyceraldehyde-3-phosphate dehydrogenase [GAPDH]. […] Relative changes in Cx43 mRNA expression were calculated as fold-differences against ß-actin using the 2-ΔΔCt method. […]

Consider `CC(=O)c1ccc2c(c1)[C@H](NC(=O)c1ccc(F)c(Cl)c1)[C@H](O)C(C)(C)O2` [Tonabersat, N-[(3S,4S)-6-acetyl-3-hydroxy-2,2-dimethyl-3,4-dihydrochromen-4-yl]-3-chloro-4-fluorobenzamide], for which, in the experiment with hCMVEC cells, the “concentration at which GJs are uncoupled” value is at least 50 µM. Moreover, the “time to gap junction uncoupling effect” value with hCMVEC cells (50 μM) is at most 1 min. Moreover, the “gap junction uncoupling (LY dye transfer)” value with hCMVEC cells (50 μM added immediately) is recorded as “did not significantly reduce GJ coupling”; in the experiment on hCMVEC cells (50 μM added immediately, listed as tonabersat), “statistically significant gap junction uncoupling effect”; in the experiment on hCMVEC cells (50 μM, 1 hour prior to the assay), “did not significantly reduce GJ coupling”. Moreover, the “LY positive cells compared to control” value was 72.5±7.4% with hCMVEC cells (50 μM, 2 hours); 62.8±7.4% with hCMVEC cells (50 μM, 6 hours); 50.5±8.4% in the experiment on hCMVEC cells (50 μM, 24 hours); 46.7±7.8% in the experiment with hCMVEC cells (100 μM); “no significant reduction in LY positive cells” with hCMVEC cells (0.1, 1 and 10 μM, 2 hours); “no significant reduction in LY positive cells” with hCMVEC cells (0.1, 1 and 10 μM, 24 hours). In experiment [1], the “Cx43 mRNA level relative to ß-actin” value is “no significant difference in Cx43 mRNA”.
